According to patent EP0102404A1, “Novel polycyclic fused pyrazole compounds useful as antiinflammatory agents and preparation thereof” (STERLING DRUG INC., priority 1982, dated 1984):

Tests used:
Assay type in all cases: in vivo
Male rats = assay: Anti-inflammatory activity (a-tocopherol pouch test)
Method: Male rats which weighed 120 g were selected for testing. A rapid subcutaneous injection of 25 mL of air was made between the scapulae of each rat. […] The test compound was administered in daily oral doses for 7 days beginning on the day of pouch formation. The compound to be tested was suspended in 1% gum tragacanth. Twenty-four hours after the last medication, the pouches were dissected free, and the fluid volume was measured.

[1] = test system: Mature male rats, bilaterally adrenalectomized; assay: Glycogenic activity (liver glycogen deposition test); settings: for liver glycogen deposition: adrenalectomized male rats, vehicle 1.75 + 0.04 mg/g
Source text: Glycogenic Activity: Mature male rats were bilaterally adrenalectomized 5 days prior to the test. These rats were medicated orally with the test compound for 5 days. Seven hours after the last medication, the rats (which have been fasted overnight) were anesthetized with sodium pentobarbital and a portion of one lobe of the liver was removed and frozen on dry ice for subsequent glycogen determination.

Mature female rats = assay: Endocrine profile (thymus, adrenal, body weight, food consumption) after oral medication for 2 weeks; settings: compared with the controls
Method: The test procedures used to determine the biological activities of the compounds of the invention were carried out as follows: • Endocrine Profile: Mature female rats with an average body weight of 202 g and a body weight range of 15 g or less were medicated orally with test compound for 2 weeks. The test compound was prepared as a solution or suspension in 1% gum tragacanth or 0.75% methyl cellulose. On the day following the last medication, the rats were killed and the thymus and adrenal of each rat were removed, cleaned, and weighed. Body weights and food consumptions were also recorded.

Row | SMILES | ED50 (Male rats; Rattus norvegicus, 168 h, daily oral doses for 7 days, male rats, inhibition of liquid exudate) | anti-inflammatory activity by the a-tocopherol pouch test (Male rats; rats, result in words) | liver glycogen deposition ([1]; 9 mg/kg/day x 5, oral) | liver glycogen deposition ([1]; 27 mg/kg/day x 5, oral) | oral glucocorticoid activity by the liver glycogen deposition test ([1]; rats, oral, result in words) | reduction in adrenal weight (Mature female rats; 5 mg/kg) | reduction in body weight gain (Mature female rats; 5 mg/kg) | reduction in weight of the thymus (Mature female rats; 5 mg/kg) | activity in the a-tocopherol pouch test (Male rats; 100 mg/kg, daily oral doses for 7 days, male rats) | reduction in adrenal weight (Mature female rats; 100 mg/kg) | reduction in body weight gain (Mature female rats; 100 mg/kg) | reduction in thymus weight (Mature female rats; 100 mg/kg)
1 | CC(=O)C1CC=C2C(CCC3=Cc4c(cnn4-c4ccc(F)cc4)CC32C)C1C(C)=O (single isomer, unassigned) [Compound I (R = CH3), 1,1'-[8-(4-Fluorophenyl)-2,3,4,4a,5,6,11,11a-octahydro-11a-methyl-8H-phenanthro[2,3-c]pyrazole-3,4-diyl]bis[ethanone]] | 23 mg/kg | anti-inflammatory activity | 9.42 + 0.65 mg/g of tissue | 25.48 + 3.39 mg/g of tissue | oral glucocorticoid activity | 40% | 80% | 59% |  |  |  | 
2 | CCOC(=O)C1(C(=O)OCC)CCC=C2C1CCC1=Cc3c(cnn3-c3ccc(F)cc3)CC12C (stereo not drawn) [Compound II (R = CH2CH3), Diethyl 8-(4-fluorophenyl)-2,3,4,4a,5,6,11,11a-octahydro-11a-methyl-8H-phenanthro[2,3-c]pyrazole-4,4-dicarboxylate] |  |  |  |  |  |  |  |  | inactive | 47% | 186% | 80%
